“And” between values parts separate entries of the source, which are not always exact repeats. Equal entries are not always repeated. Numbers after ± are expanded uncertainties.
Details: Liquid, Vibrating tube method

CCCCOC(=O)CCCCC(=O)OCCCC [dibutyl hexanedioate]
Details | mass density [kg/m3]
293.15 K, 100 kPa | 960.6 ± 3.8
293.15 K, 2510 kPa | 962.2 ± 3.9
293.15 K, 4990 kPa | 963.7 ± 3.9
293.15 K, 5000 kPa | 963.7 ± 3.9
293.15 K, 7510 kPa | 965.3 ± 3.9
293.15 K, 9990 kPa | 966.9 ± 3.9
293.15 K, 10000 kPa | 966.9 ± 3.9
293.15 K, 15010 kPa | 969.9 ± 3.9
293.15 K, 20000 kPa | 972.9 ± 3.9
293.15 K, 29990 kPa | 978.6 ± 3.9
293.15 K, 39800 kPa | 983.9 ± 3.9
293.15 K, 39860 kPa | 983.8 ± 3.9
293.15 K, 50020 kPa | 989.1 ± 4
293.15 K, 68080 kPa | 997.3 ± 4
293.15 K, 68090 kPa | 997.7 ± 4
313.15 K, 100 kPa | 943.7 ± 3.8
313.15 K, 2500 kPa | 945.4 ± 3.8
313.15 K, 5020 kPa | 947.2 ± 3.8
313.15 K, 7510 kPa | 948.9 ± 3.8
313.15 K, 9990 kPa | 950.5 ± 3.8
313.15 K, 15000 kPa | 953.9 ± 3.8
313.15 K, 20000 kPa | 957.1 ± 3.8
313.15 K, 30010 kPa | 963.3 ± 3.9
313.15 K, 39810 kPa | 969 ± 3.9
313.15 K, 50000 kPa | 974.6 ± 3.9
313.15 K, 67990 kPa | 983.8 ± 3.9
333.15 K, 100 kPa | 926.8 ± 3.7
333.15 K, 2500 kPa | 928.7 ± 3.7
333.15 K, 5010 kPa | 930.6 ± 3.7
333.15 K, 7520 kPa | 932.5 ± 3.7
333.15 K, 10010 kPa | 934.3 ± 3.7
333.15 K, 15040 kPa | 938 ± 3.8
333.15 K, 20000 kPa | 941.4 ± 3.8
333.15 K, 30030 kPa | 948.2 ± 3.8
333.15 K, 39800 kPa | 954.3 ± 3.8
333.15 K, 50030 kPa | 960.4 ± 3.9
333.15 K, 68030 kPa | 970.2 ± 3.9
353.15 K, 100 kPa | 909.9 ± 3.6
353.15 K, 2510 kPa | 912 ± 3.7
353.15 K, 5000 kPa | 914.1 ± 3.7
353.15 K, 7530 kPa | 916.2 ± 3.7
353.15 K, 10010 kPa | 918.2 ± 3.7
353.15 K, 15000 kPa | 922.2 ± 3.7
353.15 K, 20000 kPa | 926 ± 3.7
353.15 K, 30010 kPa | 933.3 ± 3.7
353.15 K, 39840 kPa | 939.9 ± 3.8
353.15 K, 49990 kPa | 946.4 ± 3.8
353.15 K, 67990 kPa | 956.9 ± 3.8
373.15 K, 100 kPa | 893 ± 3.6
373.15 K, 2490 kPa | 895.3 ± 3.6
373.15 K, 2500 kPa | 895.3 ± 3.6
373.15 K, 5020 kPa | 897.6 ± 3.6
373.15 K, 7510 kPa | 899.9 ± 3.6
373.15 K, 10010 kPa | 902.1 ± 3.6
373.15 K, 15010 kPa | 906.5 ± 3.6
373.15 K, 19980 kPa | 910.6 ± 3.7
373.15 K, 30010 kPa | 918.5 ± 3.7
373.15 K, 39810 kPa | 925.7 ± 3.7
373.15 K, 50000 kPa | 932.6 ± 3.7
373.15 K, 68010 kPa | 943.8 ± 3.8

CCCCC(CC)COC(=O)CCCCC(=O)OCC(CC)CCCC (stereo not given) [bis(2-ethylhexyl) adipate]
Details | mass density
293.15 K, 100 kPa | 925.4 ± 3.7 kg/m3
293.15 K, 2510 kPa | 926.9 ± 3.7 kg/m3
293.15 K, 5000 kPa | 928.4 ± 3.7 kg/m3 and 928.3 ± 3.7 kg/m3
293.15 K, 5010 kPa | 928.4 ± 3.7 kg/m3
293.15 K, 7550 kPa | 929.9 ± 3.7 kg/m3
293.15 K, 10010 kPa | 931.3 ± 3.7 kg/m3
293.15 K, 10020 kPa | 931.3 ± 3.7 kg/m3
293.15 K, 15040 kPa | 934.2 ± 3.7 kg/m3
293.15 K, 20020 kPa | 937 ± 3.8 kg/m3
293.15 K, 30030 kPa | 942.4 ± 3.8 kg/m3
293.15 K, 40010 kPa | 947.4 ± 3.8 kg/m3
293.15 K, 40020 kPa | 947.4 ± 3.8 kg/m3
293.15 K, 50020 kPa | 952.3 ± 3.8 kg/m3
293.15 K, 68030 kPa | 960.4 ± 3.9 kg/m3 and 960.3 ± 3.9 kg/m3
313.15 K, 100 kPa | 910.3 ± 3.6 kg/m3
313.15 K, 2530 kPa | 911.9 ± 3.7 kg/m3
313.15 K, 2540 kPa | 911.9 ± 3.7 kg/m3
313.15 K, 5020 kPa | 913.5 ± 3.7 kg/m3
313.15 K, 7540 kPa | 915.2 ± 3.7 kg/m3
313.15 K, 10010 kPa | 916.7 ± 3.7 kg/m3
313.15 K, 15010 kPa | 919.8 ± 3.7 kg/m3
313.15 K, 20000 kPa | 922.8 ± 3.7 kg/m3
313.15 K, 30030 kPa | 928.7 ± 3.7 kg/m3
313.15 K, 40020 kPa | 934.1 ± 3.7 kg/m3
313.15 K, 50010 kPa | 939.3 ± 3.8 kg/m3
313.15 K, 68050 kPa | 947.9 ± 3.8 kg/m3
333.15 K, 100 kPa | 895.3 ± 3.6 kg/m3
333.15 K, 2500 kPa | 897.1 ± 3.6 kg/m3
333.15 K, 5000 kPa | 898.8 ± 3.6 kg/m3
333.15 K, 7480 kPa | 900.6 ± 3.6 kg/m3
333.15 K, 9990 kPa | 902.3 ± 3.6 kg/m3
333.15 K, 14990 kPa | 905.7 ± 3.6 kg/m3
333.15 K, 19970 kPa | 908.9 ± 3.6 kg/m3
333.15 K, 30010 kPa | 915.2 ± 3.7 kg/m3
333.15 K, 39990 kPa | 921 ± 3.7 kg/m3
333.15 K, 50020 kPa | 926.6 ± 3.7 kg/m3
333.15 K, 68010 kPa | 935.8 ± 3.8 kg/m3
353.15 K, 100 kPa | 880.4 ± 3.5 kg/m3
353.15 K, 2500 kPa | 882.3 ± 3.5 kg/m3
353.15 K, 2510 kPa | 882.3 ± 3.5 kg/m3
353.15 K, 5000 kPa | 884.2 ± 3.5 kg/m3
353.15 K, 7510 kPa | 886.1 ± 3.6 kg/m3
353.15 K, 10000 kPa | 888 ± 3.6 kg/m3
353.15 K, 15010 kPa | 891.7 ± 3.6 kg/m3
353.15 K, 20020 kPa | 895.2 ± 3.6 kg/m3
353.15 K, 30030 kPa | 902 ± 3.6 kg/m3
353.15 K, 40020 kPa | 908.2 ± 3.6 kg/m3
353.15 K, 50010 kPa | 914.1 ± 3.7 kg/m3
353.15 K, 68010 kPa | 923.9 ± 3.7 kg/m3
373.15 K, 100 kPa | 865.4 ± 3.5 kg/m3
373.15 K, 2510 kPa | 867.5 ± 3.5 kg/m3
373.15 K, 5020 kPa | 869.7 ± 3.5 kg/m3
373.15 K, 7510 kPa | 871.7 ± 3.5 kg/m3
373.15 K, 10010 kPa | 873.8 ± 3.5 kg/m3
373.15 K, 14990 kPa | 877.8 ± 3.5 kg/m3
373.15 K, 20000 kPa | 881.6 ± 3.5 kg/m3
373.15 K, 30010 kPa | 888.9 ± 3.6 kg/m3
373.15 K, 40000 kPa | 895.6 ± 3.6 kg/m3
373.15 K, 50010 kPa | 901.9 ± 3.6 kg/m3
373.15 K, 68000 kPa | 912.3 ± 3.7 kg/m3

Reference: the NIST ThermoML archive (doi:10.1016/j.fluid.2014.04.018)
